The compounds below were run on Artemia (assay: Tested for bioactivity against Brine Shrimp).
Type: functional

Row | Structure (SMILES) | IC100
1 | CC[C@H](C)[C@H]1O[C@]2(C=C[C@@H]1C)C[C@@H]1C[C@@H](C/C=C(\C)[C@@H](O[C@@H]3C[C@@H](OC)[C@H](O[C@@H]4C[C@@H](OC)[C@H](O)[C@@H](C)O4)[C@@H](C)O3)[C@@H](C)/C=C/C(O)[C@]3(O)COC4[C@H](O)C(C)=C[C@@H](C(=O)O1)[C@@]43O)O2 (stereo not given in full) | >55000 ng/mL
2 | CC[C@H](C)[C@H]1O[C@]2(C=C[C@@H]1C)C[C@@H]1C[C@@H](C/C=C(\C)[C@@H](O[C@@H]3C[C@@H](OC)[C@H](O[C@@H]4C[C@@H](OC)[C@H](O)[C@@H](C)O4)[C@@H](C)O3)[C@@H](C)/C=C/C(Sc3ccccc3)[C@]3(O)COC4[C@H](O)C(C)=C[C@@H](C(=O)O1)[C@@]43O)O2 (stereo not given in full) | >55000 ng/mL
3 | CC[C@H](C)[C@H]1O[C@]2(C=C[C@@H]1C)C[C@@H]1C[C@@H](C/C=C(\C)[C@@H](O[C@@H]3C[C@@H](OC)[C@H](O[C@@H]4C[C@@H](OC)[C@H](O)[C@@H](C)O4)[C@@H](C)O3)[C@@H](C)/C=C/[C@@H]3O[C@]34COC3[C@H](O)C(C)=C[C@@H](C(=O)O1)[C@@]34O)O2 (stereo not given in full) | 650 ng/mL
4 | CC[C@H](C)[C@H]1O[C@]2(C=C[C@@H]1C)C[C@@H]1C[C@@H](C/C=C(\C)[C@@H](O[C@@H]3C[C@@H](OC)[C@H](O[C@@H]4C[C@@H](OC)[C@H](O)[C@@H](C)O4)[C@@H](C)O3)[C@@H](C)/C=C/C=C3\COC4[C@H](O)C(C)=C[C@@H](C(=O)O1)[C@]34O)O2 (stereo not given in full) | 335 ng/mL
5 | CC[C@H](C)[C@H]1O[C@]2(CC[C@@H]1C)C[C@@H]1C[C@@H](C/C=C(\C)[C@@H](O[C@@H]3C[C@@H](OC)[C@H](O[C@@H]4C[C@@H](OC)[C@H](O)[C@@H](C)O4)[C@@H](C)O3)[C@@H](C)/C=C/C=C3\COC4[C@H](O)C(C)=C[C@@H](C(=O)O1)[C@]34O)O2 (stereo not given in full) | 430 ng/mL

From ChEMBL document CHEMBL1127127, “Avermectin B1-8,9-oxide: reactivity, bioactivity, and stereochemistry” (1993)
